Experimental findings from US20250179047A1, “5-[7-(3,4-DIHYDRO-1H-ISOQUINOLINE-2-CARBONYL)-1,2,3,4 TETRAHYDROISOQUINOLIN-6-YL]-1H-PYRROLE-3-CARBOXAMIDE DERIVATIVES, PHARMACEUTICAL COMPOSITIONS CONTAINING THEM AND THEIR USES AS PRO-APOPTOTIC AGENTS” (LES LABORATOIRES SERVIER, priority 2022, published 2025) are described below.

Assay [1] concerns the target BCL2 WT (Homo sapiens (Human), UniProt P10415). In words: TR-FRET competitive binding assay, BCL2 WT. The settings on record: Ki determined from IC50, read-out: TR_FRET EKI_Bcl2 WT. The gist of the method:
(§1)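 Terbium-labelled N-terminal Halo-fusion BCL2 or BCLXL (E. coli), 0.5 nM, competed against fluorescein-labelled PUMA peptide (2 or 20 nM) for 2 h at 23° C in 50 mM Hepes pH 7.5, 150 mM NaCl, 5% DMSO. TR-FRET 520/495 nm ratio gave IC50 by four-parameter fit; Ki derived from IC50.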
Background: Time-resolved FRET reads energy transfer from a long-lived donor to a nearby acceptor.

For assay [2], the target named is BCL2 G101V (Homo sapiens, UniProt P10415, G101V). The experiment in a line: TR-FRET competitive binding assay, BCL2 G101V. The settings on record: BCL2 G101V; Ki determined from IC50; read-out: TR_FRET EKI_Bcl2 G101V. Put shortly: as §1
The test system of assay [3] is BCL2 G101V. In words: TR-FRET competitive binding assay, BCL2 G101V. Also on record: species or system human. The settings on record: ratio Ki BCL2 G101V / Ki BCL2 WT. The gist of the method: as §1
Assay [4] has as its target BCL2 D103Y (Homo sapiens, UniProt P10415, D103Y). In words: TR-FRET competitive binding assay, BCL2 D103Y. As to conditions: Ki determined from IC50, read-out: TR_FRET EKI_Bcl2 D103Y. Put shortly:
as §1

The target in assay [5] is BCLXL WT (Homo sapiens (Human), UniProt Q07817). In words: TR-FRET competitive binding assay, BCLXL WT. As to conditions: for Ki: BCLXL WT, Ki determined from IC50, read-out: TR_FRET EKI BclxL; for TR_FRET EKI BCLxL/WT selectivty ratio: ratio Ki BCLxL / Ki BCL2 WT. The gist of the method:
as §1

Assay [6] has as its system KMS-12-PE Bcl-2 WT. In words: In vitro cytotoxicity CellTiter-Glo 48 h, KMS-12-PE Bcl-2 WT. It counts as cell-based. As to conditions: Homo sapiens, KMS-12-PE, C50 = concentration needed to reach 50% of the cellular viability. The gist of the method:
(§2)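 CTG luminescence read-out; C50 = concentration reaching 50% cellular viability. Cells: KMS-12-PE expressing Bcl-2 WT or G101V (lentiviral, TagRFP-sorted). 11-pt curve, 48 h, 37 °C/5% CO2.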
A general note: Cellular ATP, detected with luciferase, serves as a proxy for viable cell number.

The subject of assay [7] is KMS-12-PE Bcl-2 G101V. The experiment in a line: In vitro cytotoxicity CellTiter-Glo 48 h, KMS-12-PE Bcl-2 G101V. It counts as cell-based. As to conditions: for Ratio (G101V/WT): C50 KMS-12-PE Bcl-2 G101V over C50 KMS-12-PE Bcl-2 WT; for IC50: Homo sapiens, KMS-12-PE, 48 h, CellTiter-Glo, C50 = concentration needed to reach 50% of the cellular viability. The gist of the method: as §2

Chain of BCLXL WT (Q07817 other isoform, or with tags, fused parts or gaps): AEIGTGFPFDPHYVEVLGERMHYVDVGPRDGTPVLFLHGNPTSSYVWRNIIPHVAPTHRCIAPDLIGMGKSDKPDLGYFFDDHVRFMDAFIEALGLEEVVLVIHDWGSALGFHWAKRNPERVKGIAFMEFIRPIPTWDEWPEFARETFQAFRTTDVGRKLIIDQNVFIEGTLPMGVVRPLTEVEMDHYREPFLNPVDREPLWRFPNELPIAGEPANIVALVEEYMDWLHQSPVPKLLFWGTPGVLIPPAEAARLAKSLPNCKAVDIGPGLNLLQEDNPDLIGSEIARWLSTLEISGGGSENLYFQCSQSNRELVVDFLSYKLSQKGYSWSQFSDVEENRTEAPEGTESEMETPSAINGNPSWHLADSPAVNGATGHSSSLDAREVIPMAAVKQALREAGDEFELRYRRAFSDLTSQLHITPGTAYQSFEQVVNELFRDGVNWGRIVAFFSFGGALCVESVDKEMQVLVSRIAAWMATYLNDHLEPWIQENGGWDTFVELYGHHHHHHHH

As to `Cc1c(N(C(=O)c2cc(-c3cc4c(cc3C(=O)N3Cc5ccccc5C[C@H]3C)CN(C(=O)Cc3ccc(Cl)cc3F)CC4)n(C)c2C)c2ccc(O)cc2)cc(C#N)n1C` [Example 19, 5-{2-[2-(4-chloro-2-fluorophenyl)acetyl]-7-[(3R)-3-methyl-1,2,3,4-tetrahydroisoquinoline-2-carbonyl]-1,2,3,4-tetrahydroisoquinolin-6-yl}-N-(5-cyano-1,2-dimethyl-1H-pyrrol-3-yl)-N-(4-hydroxyphenyl)-1,2-dimethyl-1H-pyrrole-3-carboxamide], the Ki in assay [1] was found to be 0.4 nM; in assay [2], 1.9 nM; in assay [4], 0.97 nM; in assay [5], 7.4 nM. Moreover, the “TR_FRET EKI G101V/WT selectivty ratio” value in assay [3] was found to be 4.8. Also, the “TR_FRET EKI BCLxL/WT selectivty ratio” value in assay [5] is recorded as 18.5. In addition, the IC50 (usually the concentration needed to halve the response being measured) in assay [6] came to 0.0061 µM; in assay [7], 0.0423 µM. The “Ratio (G101V/WT)” value in assay [7] came to 6.91.
As to `Cc1c(C(=O)N(c2ccc(O)cc2)c2cc(C#N)n(C(F)F)c2C)cc(-c2cc3c(cc2C(=O)N2Cc4ccccc4C[C@H]2CN2CCCCC2)CN(C(=O)Cc2ccc(OCCN4CCC(F)CC4)cc2F)CC3)n1C` [Example 158], the Ki is 0.1 nM in assay [1], 0.9 nM in assay [2], 0.47 nM in assay [4] and 5.4 nM in assay [5]. Moreover, the “TR_FRET EKI G101V/WT selectivty ratio” value in assay [3] was found to be 9.4. Also, the “TR_FRET EKI BCLxL/WT selectivty ratio” value in assay [5] is 54.0. In addition, the figures for the IC50 in assay [6] and in assay [7] were 0.0068 µM and 0.0546 µM, respectively. The “Ratio (G101V/WT)” value in assay [7] stood at 8.0412.
With `COC[C@@H]1Cc2ccccc2CN1C(=O)c1cc2c(cc1-c1cc(C(=O)N(c3ccc(O)cc3)c3cc(C#N)n(C(F)F)c3C)c(C)n1C)CCN(C(=O)Cc1ccc(OCCN3CCOCC3)cc1)C2` [Example 172, N-[5-cyano-1-(difluoromethyl)-2-methyl-pyrrol-3-yl]-N-(4-hydroxyphenyl)-5-[7-[(3S)-3-(methoxymethyl)-3,4-dihydro-1H-isoquinoline-2-carbonyl]-2-[2-[4-(2-morpholinoethoxy)phenyl]acetyl]-3,4-dihydro-1H-isoquinolin-6-yl]-1,2-dimethyl-pyrrole-3-carboxamide], the Ki in assay [1] amounted to 0.11 nM; in assay [2] it was 0.5 nM; in assay [4] it was 0.39 nM; in assay [5], 3.2 nM. Also, the “TR_FRET EKI G101V/WT selectivty ratio” value in assay [3] came out at 4.4. Moreover, the “TR_FRET EKI BCLxL/WT selectivty ratio” value in assay [5] was 29.1. Besides, the results for the IC50 in assay [6] and in assay [7] were 0.0061 µM and 0.0284 µM, respectively. Besides, the “Ratio (G101V/WT)” value in assay [7] was determined as 4.6557.
On to `Cc1c(N(C(=O)c2cc(-c3cc4c(cc3C(=O)N3Cc5ccccc5C[C@H]3CN(C)C(C)C)CN(C(=O)Cc3ccc(OCCN(C)C5CC5)cc3)CC4)n(C)c2C)c2ccc(O)cc2)cc(C#N)n1C` [Example 138, N-(5-cyano-1,2-dimethyl-pyrrol-3-yl)-5-[2-[2-[4-[2-[cyclopropyl(methyl)amino]ethoxy]phenyl]acetyl]-7-[(3S)-3-[[isopropyl(methyl)amino]methyl]-3,4-dihydro-1H-isoquinoline-2-carbonyl]-3,4-dihydro-1H-isoquinolin-6-yl]-N-(4-hydroxyphenyl)-1,2-dimethyl-pyrrole-3-carboxamide], for which the Ki in assay [1] is 0.08 nM; in assay [2], 0.5 nM; in assay [4] it was 0.24 nM; in assay [5], 2.2 nM. The “TR_FRET EKI G101V/WT selectivty ratio” value in assay [3] was 6.2. Moreover, the “TR_FRET EKI BCLxL/WT selectivty ratio” value in assay [5] worked out at 27.2. The results for the IC50 in assay [6] and in assay [7] were 0.036 µM and 0.195 µM, respectively. Further, the “Ratio (G101V/WT)” value in assay [7] is 5.4167.
On to `Cc1c(N(C(=O)c2cc(-c3cc4c(cc3C(=O)N3Cc5ccccc5C[C@H]3CN3CC[C@@H](F)C3)CN(C(=O)Cc3ccc(OCCC5CCOCC5)cc3)CC4)n(C)c2C)c2ccc(O)cc2)cc(C#N)n1C` [Example 79, N-(5-cyano-1,2-dimethylpyrrol-3-yl)-5-(7-{[(3S)-3-{[(3R)-3-fluoropyrrolidin-1-yl]methyl}-3,4-dihydro-1H-isoquinolin-2-yl]carbonyl}-2-(2-{4-[2-(oxan-4-yl)ethoxy]phenyl}acetyl)-3,4-dihydro-1H-isoquinolin-6-yl)-N-(4-hydroxyphenyl)-1,2-dimethylpyrrole-3-carboxamide], for which the Ki came to 0.26 nM in assay [1], 1.5 nM in assay [2], 0.75 nM in assay [4] and 3.9 nM in assay [5]. The “TR_FRET EKI G101V/WT selectivty ratio” value in assay [3] worked out at 5.8. Further, the “TR_FRET EKI BCLxL/WT selectivty ratio” value in assay [5] came out at 15.0. Further, the figures for the IC50 in assay [6] and in assay [7] were 0.0122 µM and 0.0592 µM, respectively. The “Ratio (G101V/WT)” value in assay [7] is 4.85.
Take `COc1ccc(N(C(=O)c2cc(-c3cc4c(cc3C(=O)N3Cc5ccccc5C[C@H]3CN(C)C(C)C)CN(C(=O)Cc3ccc(OCCN5CCOCC5)cc3F)CC4)n(C)c2C)c2ccc(O)cc2)cc1C#N` [Example 179, N-(3-cyano-4-methoxy-phenyl)-5-[2-[2-[2-fluoro-4-(2-morpholinoethoxy)phenyl]acetyl]-7-[(3S)-3-[[isopropyl(methyl)amino]methyl]-3,4-dihydro-1H-isoquinoline-2-carbonyl]-3,4-dihydro-1H-isoquinolin-6-yl]-N-(4-hydroxyphenyl)-1,2-dimethyl-pyrrole-3-carboxamide]: the Ki in assay [1] worked out at 0.04 nM; in assay [2], 0.6 nM; in assay [4], 0.13 nM; in assay [5], 6.1 nM. Moreover, the “TR_FRET EKI G101V/WT selectivty ratio” value in assay [3] came to 14.7. Besides, the “TR_FRET EKI BCLxL/WT selectivty ratio” value in assay [5] came to 148.0. The results for the IC50 in assay [6] and in assay [7] were 0.0117 µM and 0.113 µM, respectively. In addition, in assay [7], the “Ratio (G101V/WT)” value was 9.658.
On to `Cc1ncc(N(C(=O)c2cc(-c3cc4c(cc3C(=O)N3Cc5ccccc5C[C@H]3CN3CCCCC3)CN(C(=O)Cc3ccc(OCCN5CCOCC5)cc3F)CC4)n(C)c2C)c2ccc(O)cc2)cc1C#N` [Example 177, N-(5-cyano-6-methyl-3-pyridyl)-5-[2-[2-[2-fluoro-4-(2-morpholinoethoxy)phenyl]acetyl]-7-[(3S)-3-(1-piperidylmethyl)-3,4-dihydro-1H-isoquinoline-2-carbonyl]-3,4-dihydro-1H-isoquinolin-6-yl]-N-(4-hydroxyphenyl)-1,2-dimethyl-pyrrole-3-carboxamide], for which the Ki in assay [1] stood at 0.05 nM; in assay [2], 0.5 nM; in assay [4], 0.12 nM; in assay [5] it was 12.4 nM. In assay [3], the “TR_FRET EKI G101V/WT selectivty ratio” value worked out at 10.0. The “TR_FRET EKI BCLxL/WT selectivty ratio” value in assay [5] is on record as 229.0. The values for the IC50 in assay [6] and in assay [7] were 0.0052 µM and 0.0581 µM, respectively. In assay [7], the “Ratio (G101V/WT)” value came out at 11.238.
In the case of `COc1cc(OCCN2CCOCC2)ccc1CC(=O)N1CCc2cc(-c3cc(C(=O)N(c4ccc(O)cc4)c4cc(C#N)n(C)c4C)c(C)n3C)c(C(=O)N3Cc4ccccc4C[C@H]3CN3CCCCC3)cc2C1` [Example 114, N-(5-cyano-1,2-dimethyl-1H-pyrrol-3-yl)-N-(4-hydroxyphenyl)-5-[2-(2-{2-methoxy-4-[2-(morpholin-4-yl)ethoxy]phenyl}acetyl)-7-[(3S)-3-[(piperidin-1-yl)methyl]-1,2,3,4-tetrahydroisoquinoline-2-carbonyl]-1,2,3,4-tetrahydroisoquinolin-6-yl]-1,2-dimethyl-1H-pyrrole-3-carboxamide], the Ki in assay [1] was 0.05 nM; in assay [2] it was 0.2 nM; in assay [4] it was 0.1 nM; in assay [5], 4.3 nM. Further, in assay [3], the “TR_FRET EKI G101V/WT selectivty ratio” value was 3.9. In addition, in assay [5], the “TR_FRET EKI BCLxL/WT selectivty ratio” value worked out at 84.3. Moreover, the values for the IC50 in assay [6] and in assay [7] were 0.0099 µM and 0.0602 µM, respectively. Also, the “Ratio (G101V/WT)” value in assay [7] came to 6.09.
Turning to `Cc1c(C(=O)N(c2ccc(O)cc2)c2cc(C#N)n(C(F)F)c2C)cc(-c2cc3c(cc2C(=O)N2Cc4ccccc4C[C@H]2CN2CCCCC2)CN(C(=O)Cc2ccc(OCCN4CCN(CCF)CC4)cc2F)CC3)n1C` [Example 159, N-[5-cyano-1-(difluoromethyl)-2-methylpyrrol-3-yl]-5-{2-[2-(2-fluoro-4-{2-[4-(2-fluoroethyl)piperazin-1-yl]ethoxy}phenyl)acetyl]-7-{[(3S)-3-(piperidin-1-ylmethyl)-3,4-dihydro-1H-isoquinolin-2-yl]carbonyl}-3,4-dihydro-1H-isoquinolin-6-yl}-N-(4-hydroxyphenyl)-1,2-dimethylpyrrole-3-carboxamide], the Ki was found to be 0.05 nM in assay [1], 0.3 nM in assay [2], 0.13 nM in assay [4] and 3.7 nM in assay [5]. The “TR_FRET EKI G101V/WT selectivty ratio” value in assay [3] is on record as 5.1. For the same compound, the “TR_FRET EKI BCLxL/WT selectivty ratio” value in assay [5] came out at 69.8. Besides, the IC50 in assay [6] was 0.0079 µM; in assay [7], 0.0392 µM. Further, in assay [7], the “Ratio (G101V/WT)” value is given as 4.9873.
